Data published in PubChem BioAssay (NCI).
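In this assay, cells in 96-well plates receive the compound at five concentrations for 48 hours. Endpoints are linearly interpolated between the surrounding concentrations. Here, GI50 denotes the concentration required for 50% inhibition of growth. At the TGI there is no net growth.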

Experiments:
Assay in all cases: DTP human tumour cell line panel, 48 h
[1] = tested on: ACHN renal
[2] = tested on: DMS 273 small cell lung
[3] = tested on: LXFL 529 NSCLC
[4] = tested on: M14 melanoma
[5] = tested on: MOLT-4 leukemia
[6] = tested on: NCI-H23 lung
[7] = tested on: SF-268 CNS
[8] = tested on: SK-MEL-2 melanoma
[9] = tested on: BT-549 breast
[10] = tested on: NCI/ADR-RES ovarian

Structure (SMILES)	GI50 [1] [µM]	TGI [1] [µM]	TGI [2] [µM]	TGI [3] [µM]	GI50 [4] [µM]	TGI [4] [µM]	GI50 [5] [µM]	TGI [5] [µM]	GI50 [6] [µM]	TGI [6] [µM]	GI50 [7] [µM]	TGI [7] [µM]	GI50 [8] [µM]	TGI [8] [µM]	GI50 [9] [µM]	TGI [9] [µM]	GI50 [10] [µM]	TGI [10] [µM]
CCCCCCCCCCCCC(=O)OC(c1cnco1)c1nc(C(O)CC(O)C(O)C(C)O)co1 (stereo unspecified)	6.38	> 71.9	> 38.6	> 100	0.794	> 63.8	0.537	5.14	1.23	25	4.56	> 47.3	4.79	> 66	–	–	–	–
O=C1NC2(CCCC2)C(=O)C12CCCC2	–	> 100	> 100	> 100	–	> 100	–	> 100	–	> 100	–	> 100	–	> 100	–	–	–	–
C#CCNC(=O)NC(CCCNC(=O)OCc1ccccc1)C(=O)OCc1ccccc1 (stereo unspecified)	–	> 100	> 100	> 100	–	50.6	–	> 100	–	> 100	–	> 100	–	> 100	–	–	–	–
COC(=O)C(=O)CC(=O)CCn1ncc(Cl)c(Cl)c1=O	–	34.9	30.3	24.2	–	26.7	–	22.1	–	26.9	–	21.4	–	32.5	14.4	27.7	18.6	44.1
O=[N+]([O-])[C@@H]1C2C=CC(C2)[C@H]1Cl (stereo partly specified)	–	> 100	> 100	> 100	–	> 100	–	> 100	–	> 100	–	> 100	–	> 100	–	–	–	–
C=CC1=CSNN1	–	> 100	> 100	> 100	–	> 100	–	> 100	–	> 100	–	> 100	–	> 100	–	–	–	–
CC(=O)OC1=C2CC3(C)OC(=O)CC(C)(C)C3=CC=C2C=C(C(C)C)C1=O (stereo unspecified)	–	1.76	2.65	0.299	–	0.912	–	0.756	–	1.47	–	2.4	–	1.65	–	–	–	–
C=CCSC[C@H](NC(=O)COc1ccccc1)C(=O)NC(C(=O)OCc1ccc([N+](=O)[O-])cc1)=C(C)C	–	> 100	> 100	> 100	–	> 100	–	88.1	–	–	–	> 100	–	> 100	–	–	–	–
CCOC(=O)CC1=Nc2ccccc2SC1	–	> 100	> 100	> 100	–	> 100	–	> 100	–	> 100	–	1.56	–	> 100	–	–	–	–
